Read-outs that look alike come from different tables or passages of the source. Marks after values point to notes of the source that are not given here.
Key:
CMKLR1 KO mice = test: EAE induced by active immunization in CMKLR1 KO mice; type: in vivo, mouse; conditions: 10 mg/kg daily s.c.
[1] = mouse
[2] = biological target: Aldehyde dehydrogenase 1 family, member A1 (ALDH1A1); set-up: method as in PubChem, 2014b; ref 22; conditions: Purified enzyme; ref PubChem, 2014b; cited from earlier work
[3] = biological target: G9a histone lysine methyltransferase; set-up: method as in PubChem, 2014b; ref 23; conditions: Purified enzyme; ref PubChem, 2014b; cited from earlier work
[4] = biological target: Tyrosyl-DNA phosphodiesterase 1 + camptothecin; set-up: method as in PubChem, 2014a; conditions: Cell-based (process); ref PubChem, 2014a; cited from earlier work
DNA re-replication = tested on: DNA re-replication; set-up: method as in PubChem, 2014b; conditions: Cell-based (process); ref PubChem, 2014b; read-out: Agonist activity, EC50 (µM), DNA re-replication; cited from earlier work
Vitamin D receptor = biological target: Vitamin D receptor; set-up: method as in PubChem, 2014a; conditions: Purified protein (binding); ref PubChem, 2014a; cited from earlier work
Thrombopoietin = tested on: Thrombopoietin; set-up: method as in PubChem, 2014a; conditions: Cell-based; ref PubChem, 2014a; cited from earlier work
[5] = tested on: Marburg virus binding/entry; conditions: Cell-based; ref PubChem, 2014b; cited from earlier work
IL-6/STAT signaling = tested on: IL-6/STAT signaling; set-up: method as in PubChem, 2014a; conditions: Cell-based; ref PubChem, 2014a; cited from earlier work
[6] = tested on: Lassa virus binding/entry; conditions: Cell-based; ref PubChem, 2014b; cited from earlier work
p53 mutants = tested on: p53 mutants; set-up: method as in PubChem, 2014a; conditions: Cell-based (process); ref PubChem, 2014a; cited from earlier work
[7] = biological target: 15-Hydroxyprostaglandin dehydrogenase; set-up: method as in PubChem, 2014b; conditions: Purified enzyme; ref PubChem, 2014b; cited from earlier work
[8] = biological target: Bacillus subtilis Sfp phosphopantetheinyl transferase; set-up: method as in PubChem, 2014a; conditions: Purified enzyme; ref PubChem, 2014a; cited from earlier work
Acetylcholinesterase = biological target: Acetylcholinesterase; set-up: method as in Sastry et al., 1988a; ref 19; conditions: Purified enzyme; ref Sastry et al., 1988a; cited from earlier work
Cytochrome p450 3A4 = conditions: cited from earlier work
Cytochrome p450 2D6 = conditions: cited from earlier work
CCR9 = CCR9 (Homo sapiens, UniProt P51686); test: Transwell chemotaxis of CCR9+ MOLT-4 cells to CCL25
Sequence of CCR9 (P51686 whole entry): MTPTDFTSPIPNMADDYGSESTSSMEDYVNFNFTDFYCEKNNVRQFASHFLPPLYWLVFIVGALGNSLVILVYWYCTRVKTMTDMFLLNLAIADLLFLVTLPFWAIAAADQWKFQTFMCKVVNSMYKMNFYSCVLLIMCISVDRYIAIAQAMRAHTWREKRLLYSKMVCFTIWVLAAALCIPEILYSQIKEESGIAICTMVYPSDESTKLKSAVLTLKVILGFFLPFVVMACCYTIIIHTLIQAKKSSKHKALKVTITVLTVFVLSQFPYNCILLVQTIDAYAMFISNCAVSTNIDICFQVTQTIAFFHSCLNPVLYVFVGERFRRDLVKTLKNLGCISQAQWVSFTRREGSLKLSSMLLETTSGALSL

CXCR4 = CXCR4 (Homo sapiens, UniProt P61073); test: Transwell chemotaxis of CXCR4+ U937 cells to CXCL12
Sequence of CXCR4 (P61073 whole entry): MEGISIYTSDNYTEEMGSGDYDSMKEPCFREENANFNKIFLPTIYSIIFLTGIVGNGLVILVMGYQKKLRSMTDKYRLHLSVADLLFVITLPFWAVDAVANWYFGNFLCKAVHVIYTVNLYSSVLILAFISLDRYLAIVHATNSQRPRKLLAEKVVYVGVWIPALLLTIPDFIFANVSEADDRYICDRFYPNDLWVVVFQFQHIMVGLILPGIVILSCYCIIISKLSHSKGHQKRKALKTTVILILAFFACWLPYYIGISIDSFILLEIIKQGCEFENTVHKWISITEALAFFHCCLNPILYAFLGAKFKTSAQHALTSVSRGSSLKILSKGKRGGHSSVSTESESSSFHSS

CXCR7 = CXCR7 (Homo sapiens, UniProt P25106); test: β-arrestin2 (β-ARR2) assay, CXCR7/CHO cells, CXCL12-stimulated; conditions: 3 µM
Sequence of CXCR7 (P25106 whole entry, species assumed): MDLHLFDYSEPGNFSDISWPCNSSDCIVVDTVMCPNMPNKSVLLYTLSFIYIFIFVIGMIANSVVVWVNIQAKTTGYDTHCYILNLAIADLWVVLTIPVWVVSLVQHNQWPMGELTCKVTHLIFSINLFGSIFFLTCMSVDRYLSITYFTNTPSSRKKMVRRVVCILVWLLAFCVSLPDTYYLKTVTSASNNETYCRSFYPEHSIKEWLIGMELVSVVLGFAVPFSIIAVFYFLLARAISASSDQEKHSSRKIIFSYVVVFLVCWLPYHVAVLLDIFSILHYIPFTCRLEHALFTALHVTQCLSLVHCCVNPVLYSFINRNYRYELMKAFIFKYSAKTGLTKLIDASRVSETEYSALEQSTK

mCMKLR1 = biological target: T1, mCMKLR1 (Mus musculus, UniProt P97468); test: Transwell chemotaxis of mCMKLR1/L1.2 transfectants to chemerin
T1 sequence (P97468 1-371): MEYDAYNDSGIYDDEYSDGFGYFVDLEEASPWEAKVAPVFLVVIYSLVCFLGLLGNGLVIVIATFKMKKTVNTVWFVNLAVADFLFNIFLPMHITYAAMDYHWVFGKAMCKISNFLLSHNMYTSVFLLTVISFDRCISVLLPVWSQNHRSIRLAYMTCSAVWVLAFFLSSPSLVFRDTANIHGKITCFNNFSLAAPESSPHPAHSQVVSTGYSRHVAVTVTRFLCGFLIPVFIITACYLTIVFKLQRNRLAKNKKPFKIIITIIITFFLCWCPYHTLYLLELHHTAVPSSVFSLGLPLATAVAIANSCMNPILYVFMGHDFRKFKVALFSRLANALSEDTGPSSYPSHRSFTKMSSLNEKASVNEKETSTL

GPR1 = GPR1 (Homo sapiens, UniProt P46091); test: β-arrestin2 (β-ARR2) assay, GPR1/CHO cells, chemerin-stimulated
Sequence of GPR1 (P46091 whole entry, species assumed): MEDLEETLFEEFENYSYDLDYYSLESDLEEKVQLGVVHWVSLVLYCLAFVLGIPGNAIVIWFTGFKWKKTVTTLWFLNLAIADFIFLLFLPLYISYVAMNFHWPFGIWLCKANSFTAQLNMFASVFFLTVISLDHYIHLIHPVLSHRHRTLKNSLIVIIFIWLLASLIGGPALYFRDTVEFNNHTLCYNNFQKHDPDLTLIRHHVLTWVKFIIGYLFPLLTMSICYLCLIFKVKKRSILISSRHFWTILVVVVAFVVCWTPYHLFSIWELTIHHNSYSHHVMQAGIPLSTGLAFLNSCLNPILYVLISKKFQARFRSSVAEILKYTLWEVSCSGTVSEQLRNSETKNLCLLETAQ

huCMKLR1 = biological target: T2, huCMKLR1 (Homo sapiens, UniProt Q99788); test: Transwell chemotaxis of huCMKLR1/L1.2 transfectants to chemerin
T2 sequence (Q99788 1-373): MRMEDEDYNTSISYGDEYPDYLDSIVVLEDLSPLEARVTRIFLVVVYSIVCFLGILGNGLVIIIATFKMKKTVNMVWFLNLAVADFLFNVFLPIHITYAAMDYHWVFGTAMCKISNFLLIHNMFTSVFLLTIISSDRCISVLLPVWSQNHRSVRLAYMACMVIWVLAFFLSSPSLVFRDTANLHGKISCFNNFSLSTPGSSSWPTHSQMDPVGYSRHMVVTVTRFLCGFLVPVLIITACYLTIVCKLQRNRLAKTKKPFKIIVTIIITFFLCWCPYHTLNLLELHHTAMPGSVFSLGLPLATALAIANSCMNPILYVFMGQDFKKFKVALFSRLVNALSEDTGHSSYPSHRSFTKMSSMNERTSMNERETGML

C57BL/6 mice [9] = test: Histology and flow cytometry of CNS and spleen leukocytes in EAE mice (active immunization)
C57BL/6 mice [10] = test: Recall proliferation and cytokine (ELISA) responses of LN and spleen cells from treated MOG35-55/CFA-immunized mice; conditions: in vivo treatment over a 10-day period; 72 h restimulation

Q: Which results are given for `C[N+](C)(C)CCC(=O)c1cccc2ccccc12.[I-]` [α-NETA, 2-(α-naphthoyl)ethyltrimethylammonium iodide]?
A: disease incidence by day 20 (CMKLR1 KO mice; not statistically significant): 40%; Mean day of onset (SEM) (CMKLR1 KO mice; only animals that developed EAE, not significant (p = 0.18)): 14.3 (1.5) ^ns; detection of parent compound after in vivo dosing ([1]; iv, 0.5 mg/kg): unable to detect any of the parent compound; detection of parent compound after in vivo dosing ([1]; sc, 10 mg/kg): unable to detect any of the parent compound; IC50 [2]: 0.04 µM; IC50 [3]: 0.5 µM; IC50 [4]: 0.58 µM; EC50 (DNA re-replication): 1.8 µM; IC50 (Vitamin D receptor): 2 µM; IC50 (Thrombopoietin): 2.5 µM; IC50 [5]: 4.5 µM; IC50 (IL-6/STAT signaling): 6.3 µM; IC50 [6]: 10 µM; IC50 (p53 mutants): 13 µM; IC50 [7]: 14 µM; IC50 [8]: 18 µM; IC50 (Acetylcholinesterase): 300 µM; IC50 (Cytochrome p450 3A4): 0.2 µM; IC50 (Cytochrome p450 2D6): ≥ 10 µM; IC50 (CCR9): ≥ 10 µM; inhibition of migration of CCR9+ MOLT4 cells to CCL25 (CCR9; 1, 3, and 10 µM): did not inhibit; IC50 (CXCR4): ≥ 10 µM; inhibition of migration of CXCR4+ cells to CXCL12 (CXCR4; 1, 3, and 10 µM): did not inhibit; inhibition of CXCL12-triggered β-arrestin2 association with CXCR7 (CXCR7): moderately inhibited; IC50 (mCMKLR1): 5 ± 0.4 µM; IC50 (GPR1): 3.4 µM; fold less potent against GPR1 compared to activity against CMKLR1 (GPR1; β-arrestin2 assay): 10 fold; IC50 (huCMKLR1): 6.5 ± 0.7 µM; total cells in the spleen (C57BL/6 mice [9]; 16 days p.i., did not reach statistical significance): more total cells in the spleen; total cells in the CNS (C57BL/6 mice [9]; 16 days p.i., p<0.05): fewer total cells in the CNS; total numbers of splenic NK cells (C57BL/6 mice [9]; EAE mice, not shown): did not induce detectable changes; numbers of CNS lesions (C57BL/6 mice [9]; chronic EAE, day 37 p.i., data not shown): no differences in numbers of CNS lesions; leukocyte accumulation within the CNS (T cells, B cells, dendritic cells, macrophages) (C57BL/6 mice [9]; day 16 p.i., no apparent preferential or selective effect on subsets): suppressed leukocyte accumulation; meningeal and parenchymal CNS inflammatory foci (C57BL/6 mice [9]; peak acute EAE, day 16 p.i.): fewer meningeal and parenchymal CNS inflammatory foci; % of NK cells (CD3-NK1.1+) in lymphocyte scatter gate (C57BL/6 mice [9]; spleen, day 16 post-EAE induction, n = 5 mice per group): 0.8 (0.1) ^* %; MOG35-55 recall proliferation and IFNγ and IL-17 production of LN and spleen cells (C57BL/6 mice [10]): comparable to vehicle-treated mice
